melting point: 72 to 78 °C
Compound: CS(=O)(=O)c1ccc(C(=O)C2C(=O)CCCC2=O)c(Cl)c1OCc1cc(-c2ccccc2)no1 [1.70, 2-(2-Chloro-3-(3-phenylisoxazol-5-yl)methoxy-4-methylsulfonylbenzoyl)cyclohexane-1,3-dione]

Source: US6448201B1, “Benzoylcyclohexanediones and benzoylpyrazoles, their preparation, and their use as herbicides and plant growth regulators” (Aventis CropScience GmbH, priority 1999, dated 2002)
